The text below walks through data of patent publication US12552768B2, “Pyridinylpyrazole derivative or pharmaceutically acceptable salt thereof and use thereof” (INDUSTRY-UNIVERSITY COOPERATION FOUNDATION HANYANG …, priority 2021, dated 2026).

For one test, the target named is PLK1(h) (Homo sapiens, UniProt P53350). The test is described as follows: PLK1 kinase inhibition, radiometric [33P-ATP] assay (IC50 Profiler Express). In kind it is biochemical. As to conditions: for IC50: 10 μM ATP, 1 μM substrate (casein), 40 minutes at room temperature. The protocol: (§1) The analysis protocol was as follows. 1 μM substrate (casein), 10 μM ATP and PLK1(h) (5-10 mU) were incubated with 25 mM Tris pH 7.5, 0.02 mM EGTA, 0.66 mg/mL myelin basic protein, 10 mM Mg acetate and [33P-ATP] (specific activity of about 500 cpm/pmol, concentration as required) in a reaction solution with a final volume of 25 μL. The reaction was initiated by adding Mg-ATP mixture. After incubation at room temperature for 40 minutes, the reaction was stopped by adding 5 μL of a 3% phosphoric acid solution. 10 μL of the reaction solution was spotted on a P30 filter mat and washed 3 times for 5 minutes in 75 mM phosphoric acid and once in methanol prior to drying and scintillation counting. The 30 selected protein kinases were ABL1, AKT1, ALK, Aurora A, AXL, AXL (R499C), BRAF (V599E), BTK, c-MER, c-MET, c-Src, CAMKK1, CDK1/cyclin A, EGFR, ERK1, FGFR3, FYN, IGF1R, JAK3, KDR/VEGFR2, LCK, LYN, MEK1, PKA, PLK1, PLK2, PLK3, PLK4/SAK, SYK and TYRO3/SKY4.

For test [1], the system named is 30 selected protein kinases. The test is described as follows: Selected kinase profiling of 30 protein kinases (Reaction Biology Kinase Hot Spot service). The following applies: screening at 10 μM or 30 μM (FIG. 2). In kind it is biochemical. The protocol:
as §1

Sequence of PLK1(h) (P53350 whole entry): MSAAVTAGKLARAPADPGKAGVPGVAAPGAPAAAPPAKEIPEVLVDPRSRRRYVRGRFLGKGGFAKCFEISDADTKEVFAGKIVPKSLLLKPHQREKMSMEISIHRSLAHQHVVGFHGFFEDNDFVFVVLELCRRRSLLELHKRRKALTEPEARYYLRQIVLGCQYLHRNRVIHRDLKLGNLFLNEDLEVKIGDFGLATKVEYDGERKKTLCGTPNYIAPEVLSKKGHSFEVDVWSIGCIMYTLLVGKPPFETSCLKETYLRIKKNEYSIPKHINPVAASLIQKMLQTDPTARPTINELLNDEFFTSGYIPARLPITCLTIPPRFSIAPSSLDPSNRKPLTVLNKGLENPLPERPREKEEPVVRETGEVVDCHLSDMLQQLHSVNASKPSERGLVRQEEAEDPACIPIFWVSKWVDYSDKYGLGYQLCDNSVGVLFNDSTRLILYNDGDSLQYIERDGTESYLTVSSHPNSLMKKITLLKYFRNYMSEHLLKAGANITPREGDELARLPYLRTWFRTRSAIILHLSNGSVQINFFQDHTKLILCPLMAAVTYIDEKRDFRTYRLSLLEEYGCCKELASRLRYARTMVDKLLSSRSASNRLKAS

In turn, `COc1ccccc1Nc1cc(-n2cc(OCc3ccc(CO)cc3Cl)c(C(N)=O)n2)ccn1` [Compound 17] gave an IC50 against PLK1(h) of 0.312 µM.

`NC(=O)c1nn(-c2ccnc(Nc3ccccc3)c2)cc1OCc1ccc(CO)cc1Cl` [Compound 15, 4-((2-chloro-4-(hydroxymethyl)benzyl)oxy)-1-(2-(phenylamino)pyridin-4-yl)-1H-pyrazole-3-carboxamide]: at PLK1(h), the “inhibitory activity against PLK1 (in words)” value is reported as “highest inhibitory activity against PLK1” and the midpoint of inhibition, the IC50, lay at 0.219 µM. Further, in test [1], the “selectivity for PLK1 over other protein kinases (in words)” value is “superior effect of inhibiting PLK1 selectively as compared to other protein kinases”.

As to `CN(C)Cc1ccc(COc2cn(-c3ccnc(Nc4ccccc4)c3)nc2C(N)=O)c(Cl)c1` [Compound 16, 4-((2-chloro-4-((dimethylamino)methyl)benzyl)oxy)-1-(2-(phenylamino)pyridin-4-yl)-1H-pyrazole-3-carboxamide], on PLK1(h), the IC50 came out at 1.01 µM.

Take `COc1ccccc1Nc1cc(-n2cc(OCc3ccccc3C(F)(F)F)c(C(N)=O)n2)ccn1` [Compound 14b]: half-maximal inhibition on PLK1(h) (IC50) was put at 1.31 µM.

`COc1ccccc1Nc1cc(-n2cc(OCc3ccccc3)c(C(N)=O)n2)ccn1` [Compound 14a] displayed a half-maximal inhibitory concentration (IC50) against PLK1(h) of 1.02 µM.

Turning to `COc1ccccc1Nc1cc(-n2cc(OCc3ccc(CN(C)C)cc3Cl)c(C(N)=O)n2)ccn1` [Compound 18], the IC50 against PLK1(h) worked out at 0.998 µM.

Regarding `NC(=O)c1nn(-c2ccnc(Nc3ccccc3)c2)cc1OCc1ccccc1` [Compound 13a, 4-(benzyloxy)-1-(2-(phenylamino)pyridin-4-yl)-1H-pyrazole-3-carboxamide], half-maximal inhibition against PLK1(h) (IC50) required 9.89 µM.

The molecule `NC(=O)c1nn(-c2ccnc(Nc3ccccc3)c2)cc1OCc1ccccc1C(F)(F)F` [Compound 13b] showed a half-inhibitory concentration (IC50) against PLK1(h) of 0.847 µM.

The term IC50 denotes the concentration at which inhibition is half-maximal. A lower IC50 goes with greater potency in that assay.
